Data from the supplement of paper PMC10307832.

compound: Cc1ccc2nc(NCCN)c3ncc(C)n3c2c1 + COc1cc2c(Oc3ccc(NC(=O)C4(C(=O)Nc5ccc(F)cc5)CC4)cc3F)ccnc2cc1OCCCN1CCOCC1 [Foretinib] (partner 0.25 µM); assay: relative viability (nuclei count vs DMSO), 5 days (fraction); higher = more cells survive; conditions: first compound 0.04 µM
Procedure, shortened: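 For relative viability, nuclei counts in treated wells were divided by those in vehicle wells. Lung cancer cell lines had been pin-tool dosed in 1536-well plates the day after seeding and cultured for 5 days, then fixed and stained in one step (final 0.05% Triton X-100, 1% formaldehyde, 1 ug/ml Hoechst) and imaged at 4×. Doses were one drug alone or a fixed anchor-drug dose plus five library-drug doses (not always all listed) in √10 steps, and values are duplicate-plate medians.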

Row | Cell Line | relative viability
1 | LK-2 | 1.28
2 | NCI-H2087 | 1.13
3 | NCI-H358 | 0.752
4 | NCI-H2170 | 1.05
5 | H3255 | 1.11
6 | LOU-NH91 | 0.914
7 | NCI-H1793 | 0.79
8 | NCI-H2405 | 1.05
9 | HOP-62 | 1.05
10 | LU99A | 0.884
11 | BEN | 0.82
12 | HARA | 0.783
13 | HCC-78 | 0.579
14 | NCI-H322M | 0.995
15 | LCLC-97TM1 | 0.91
16 | A-427 | 1.09
17 | NCI-H441 | 1.1

Row | Cell Line | relative viability
18 | NCI-H1734 | 0.911
19 | NCI-H460 | 0.982
20 | NCI-H2347 | 1.2
21 | NCI-H1395 | 0.998
22 | 201T | 1.07
23 | NCI-H1915 | 1.11
24 | HCC-827 | 1.05
25 | LXF-289 | 0.95
26 | NCI-H23 | 1.09
27 | NCI-H647 | 1.06
28 | CAL-12T | 1.14
29 | NCI-H1651 | 0.682
30 | EPLC-272H | 0.664
31 | NCI-H1355 | 1.03
32 | NCI-H3122 | 0.928
33 | NCI-H1437 | 1.32

same assay, conditions: first compound 0.1265 µM

Row | Cell Line | relative viability
34 | LK-2 | 1.2
35 | NCI-H2087 | 1.08
36 | NCI-H358 | 0.718
37 | NCI-H2170 | 0.981
38 | H3255 | 0.961
39 | LOU-NH91 | 0.929
40 | NCI-H1793 | 0.68
41 | NCI-H2405 | 1.04
42 | HOP-62 | 1.07
43 | LU99A | 0.796
44 | BEN | 0.86
45 | HARA | 0.829
46 | HCC-78 | 0.584
47 | NCI-H322M | 0.874
48 | LCLC-97TM1 | 0.998
49 | A-427 | 1.03
50 | NCI-H441 | 1.28

Row | Cell Line | relative viability
51 | NCI-H1734 | 0.903
52 | NCI-H460 | 0.901
53 | NCI-H2347 | 0.741
54 | NCI-H1395 | 0.971
55 | 201T | 1.13
56 | NCI-H1915 | 1.06
57 | HCC-827 | 1.1
58 | LXF-289 | 1
59 | NCI-H23 | 1.04
60 | NCI-H647 | 1.18
61 | CAL-12T | 0.967
62 | NCI-H1651 | 0.744
63 | EPLC-272H | 0.809
64 | NCI-H1355 | 0.943
65 | NCI-H3122 | 0.981
66 | NCI-H1437 | 1.23

same assay, conditions: first compound 0.4 µM

Row | Cell Line | relative viability
67 | LK-2 | 0.936
68 | NCI-H2087 | 1.11
69 | NCI-H358 | 0.635
70 | NCI-H2170 | 0.975
71 | H3255 | 0.744
72 | LOU-NH91 | 0.889
73 | NCI-H1793 | 0.672
74 | NCI-H2405 | 1.05
75 | HOP-62 | 1.1
76 | LU99A | 0.805
77 | BEN | 0.657
78 | HARA | 0.903
79 | HCC-78 | 0.493
80 | NCI-H322M | 0.969
81 | LCLC-97TM1 | 0.934
82 | A-427 | 0.962

Row | Cell Line | relative viability
83 | NCI-H441 | 0.982
84 | NCI-H1734 | 0.78
85 | NCI-H460 | 0.955
86 | NCI-H2347 | 1.02
87 | NCI-H1395 | 0.947
88 | 201T | 1.1
89 | HCC-827 | 1.06
90 | LXF-289 | 0.955
91 | NCI-H23 | 0.963
92 | NCI-H647 | 1.23
93 | CAL-12T | 1.13
94 | NCI-H1651 | 0.825
95 | EPLC-272H | 0.64
96 | NCI-H1355 | 0.901
97 | NCI-H3122 | 0.924
98 | NCI-H1437 | 1.33

same assay, conditions: first compound 1.265 µM

Row | Cell Line | relative viability
99 | LK-2 | 0.967
100 | NCI-H2087 | 1.05
101 | NCI-H358 | 0.721
102 | NCI-H2170 | 1.03
103 | H3255 | 0.98
104 | LOU-NH91 | 0.93
105 | NCI-H1793 | 0.615
106 | NCI-H2405 | 0.978
107 | HOP-62 | 1.13
108 | LU99A | 0.921
109 | BEN | 0.788
110 | HARA | 0.956
111 | HCC-78 | 0.626
112 | NCI-H322M | 1.04
113 | LCLC-97TM1 | 0.931
114 | A-427 | 1
115 | NCI-H441 | 0.926

Row | Cell Line | relative viability
116 | NCI-H1734 | 0.95
117 | NCI-H460 | 0.928
118 | NCI-H2347 | 0.869
119 | NCI-H1395 | 0.722
120 | 201T | 1.1
121 | NCI-H1915 | 1.12
122 | HCC-827 | 1.02
123 | LXF-289 | 0.992
124 | NCI-H23 | 0.88
125 | NCI-H647 | 1.15
126 | CAL-12T | 1.14
127 | NCI-H1651 | 0.727
128 | EPLC-272H | 0.75
129 | NCI-H1355 | 0.977
130 | NCI-H3122 | 1.07
131 | NCI-H1437 | 1.28

same assay, conditions: first compound 4 µM

Row | Cell Line | relative viability
132 | LK-2 | 1.06
133 | NCI-H2087 | 1.09
134 | NCI-H358 | 0.654
135 | NCI-H2170 | 1.02
136 | H3255 | 0.764
137 | LOU-NH91 | 0.844
138 | NCI-H1793 | 0.748
139 | NCI-H2405 | 0.986
140 | HOP-62 | 1.02
141 | LU99A | 0.83
142 | BEN | 0.752
143 | HARA | 0.861
144 | HCC-78 | 0.558
145 | NCI-H322M | 1.15
146 | LCLC-97TM1 | 0.892
147 | A-427 | 0.948

Row | Cell Line | relative viability
148 | NCI-H441 | 0.918
149 | NCI-H1734 | 0.801
150 | NCI-H460 | 0.965
151 | NCI-H2347 | 0.792
152 | NCI-H1395 | 0.989
153 | 201T | 1.05
154 | NCI-H1915 | 1.03
155 | HCC-827 | 0.935
156 | LXF-289 | 0.958
157 | NCI-H23 | 1.03
158 | NCI-H647 | 0.912
159 | CAL-12T | 0.97
160 | NCI-H1651 | 0.759
161 | EPLC-272H | 0.692
162 | NCI-H1355 | 0.978
163 | NCI-H3122 | 0.875
